Test results from patent publication US20020082254A1, “Compounds for treating disorders where a decreased level of plasma FFA is desired” (priority 2000, published 2002).
Where a name gives a salt, the structure may show the parent alone. Read-outs that look alike come from different tables or passages of the source.

Columns and labels:
[1] = biological target: T1, Hormone-sensitive lipase (HSL) (Homo sapiens, UniProt Q05469); assay: Hormone-sensitive lipase (HSL) inhibition assay, 3H-labeled triolein or MOME substrate; assay type: biochemical
T1 sequence (Q05469 1-1076): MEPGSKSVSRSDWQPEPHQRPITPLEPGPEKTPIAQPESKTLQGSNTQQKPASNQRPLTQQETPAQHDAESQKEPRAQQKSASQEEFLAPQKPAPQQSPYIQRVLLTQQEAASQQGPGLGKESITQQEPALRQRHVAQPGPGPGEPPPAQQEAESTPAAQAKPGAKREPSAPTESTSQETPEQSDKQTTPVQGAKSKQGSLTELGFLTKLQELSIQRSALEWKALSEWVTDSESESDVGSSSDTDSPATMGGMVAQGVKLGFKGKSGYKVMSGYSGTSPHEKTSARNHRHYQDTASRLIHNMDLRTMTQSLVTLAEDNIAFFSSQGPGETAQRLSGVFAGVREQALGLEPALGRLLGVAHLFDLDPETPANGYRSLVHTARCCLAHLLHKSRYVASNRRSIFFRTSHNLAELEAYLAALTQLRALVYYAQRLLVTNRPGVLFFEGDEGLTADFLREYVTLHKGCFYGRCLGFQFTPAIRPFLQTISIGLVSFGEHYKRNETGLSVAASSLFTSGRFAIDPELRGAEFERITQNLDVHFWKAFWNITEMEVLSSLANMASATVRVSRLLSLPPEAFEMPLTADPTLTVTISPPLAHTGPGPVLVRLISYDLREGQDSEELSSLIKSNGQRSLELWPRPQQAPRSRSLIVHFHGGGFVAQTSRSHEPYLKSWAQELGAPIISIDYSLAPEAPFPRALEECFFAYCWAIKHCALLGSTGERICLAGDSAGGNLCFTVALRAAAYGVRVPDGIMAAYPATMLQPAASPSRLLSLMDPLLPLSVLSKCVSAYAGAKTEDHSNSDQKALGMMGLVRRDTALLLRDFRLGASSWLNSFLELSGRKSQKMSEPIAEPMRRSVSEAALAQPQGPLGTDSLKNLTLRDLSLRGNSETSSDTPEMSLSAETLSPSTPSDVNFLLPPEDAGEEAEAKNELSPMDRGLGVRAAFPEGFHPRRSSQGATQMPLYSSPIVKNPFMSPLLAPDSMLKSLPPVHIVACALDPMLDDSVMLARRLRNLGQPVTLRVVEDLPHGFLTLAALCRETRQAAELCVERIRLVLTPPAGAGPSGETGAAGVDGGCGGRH
Text: Hormone-sensitive lipase (HSL) [classified as a triacylglycerol lipase, EC 3.1.1.3, in accordance with the Recommendations of the Nomenclature Committee of the International Union of Biochemistry and Molecular Biology (available on the World Wide Web at the following address: http://www.chem.qmw.ac.uk/iubmb/enzyme/)]
Materials. The Hormone-sensitive lipase employed was provided by Dr. Cecilia Holm of Lund University, Sweden, or produced and purified by Novo Nordisk (NN) using the reagents and protocols employed by Dr. Holm. The substrates used are: ^3H-labeled triolein (TO) from Amersham, Buckinghamshire, U.K. cat No. TRA191; 5-20 Ci/mmol dissolved in toluene, triolein (Sigma, Cat. No. T-1740) and mono-oleoyl-2-O-mono-oleylglycerol (MOME) synthesized at (NN) using the protocols provided by Dr. Cecilia Holm, Lund University, Sweden. Phosphatidyl choline (PC) and phosphatidyl inositol (PI) are from Sigma (St Luis Mo., cat. Nos. P-3556 and P-5954, respectively). All other reagents are of commercial grade and obtained from various commercial sources.
Methods. The preparation of the substrates is as follows:
TO: 30 μl PC:PI (20 mg/ml solution of PC:PI 3:1 prepared in chloroform)+128 μl cold TO+15 μl ^3H-TO
MOME: 30 μl PC:PI+100 μl cold MOME+200 μl ^3H-MOME
They are then evaporated under a gentle stream of N2 followed by 20-30 minutes in a Speedvac™ apparatus to ensure the absence of residual solvent.
The samples are prepared as follows:
Samples/controls: 78 μl PED-BSA+20 μl inhibitor (various concentrations)+2 μl HSL (undiluted 0.12 mg/ml). If no inhibitors are being tested, the reaction contains 98 μl PED-BSA+2 μl HSL.
The samples are put on ice and then sonicated as follows:
With TO as substrate, add 2 ml potassium buffer (0.1M potassium phosphate, pH 7) and then sonicate twice for 1 minute, with a 1-minute interval between cycles. Add an additional 1 ml potassium buffer and sonicate 4 times for 30 seconds, with a 30 second interval in between cycles. To finish, add 1 ml BSA 20%-in potassium buffer, mix by inversion and store on ice until use.
With MOME as substrate: add 2 ml potassium buffer and then sonicate twice for 1 minute, with a 1 minute interval between cycles. Add 1.6 ml potassium buffer and sonicate 4 times for 30 seconds, with a 30-second interval between cycles. To finish, add 0.4 ml BSA 20%-buffer, mix by inversion and store on ice until use.
The enzyme reaction is run at 37° C. The substrate mix is added to the various reactions at 10 second intervals, incubated for 30 minutes in a water bath and then stopped with 3.25 ml of a solution containing CH3OH:CHCl3:heptane (10:9:7). After the addition of 1.05 ml potassium buffer pH10.5, the sample is vortexed thoroughly and centrifuged for 20 min at 2000 r.p.m. One ml of the upper phase is added to 10 ml scintillation fluid, and mixed thoroughly by shaking.
The samples are then counted, 5 min per vial, in a scintillation counter.

Lipoprotein lipase (LPL) = biological target: T2, Lipoprotein lipase (LPL) (Bos taurus, UniProt P11151); assay: Lipoprotein lipase (LPL) inhibition assay, 3H-triolein/intralipid substrate; assay type: biochemical; settings: read-out: LPL inhibition (% inh. at 50 μM)
T2 construct: Dr. Gunilla Olivecrona, Umea University (gift)
T2 sequence (P11151 29-478): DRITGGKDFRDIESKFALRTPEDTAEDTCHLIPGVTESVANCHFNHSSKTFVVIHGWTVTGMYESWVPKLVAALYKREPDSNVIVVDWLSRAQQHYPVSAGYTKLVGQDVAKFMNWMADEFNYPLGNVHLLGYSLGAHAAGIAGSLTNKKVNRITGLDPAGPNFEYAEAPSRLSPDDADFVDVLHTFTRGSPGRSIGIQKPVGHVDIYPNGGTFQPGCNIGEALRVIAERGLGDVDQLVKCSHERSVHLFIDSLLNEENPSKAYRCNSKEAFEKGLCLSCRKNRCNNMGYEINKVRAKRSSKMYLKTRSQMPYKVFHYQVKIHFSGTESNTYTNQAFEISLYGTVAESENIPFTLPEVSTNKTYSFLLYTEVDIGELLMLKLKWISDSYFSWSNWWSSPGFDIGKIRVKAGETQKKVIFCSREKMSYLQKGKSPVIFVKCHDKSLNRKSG
Text: Lipoprotein Lipase (LPL) [Classified as EC 3.1.1.34 in accordance with the Recommendations of the Nomenclature Committee of the International Union of Biochemistry and Molecular Biology (available on the World Wide Web at the following address: http://www.chem.qmw.ac.uk/iubmb/enzyme/)]
Materials. The lipoprotein lipase employed was obtained from Dr. Gunilla Olivecrona of Umea University, Sweden. ^3H-triolein (TO) from Amersham, Buckinghamshire, U.K., cat No. TRA191; 5-20 Ci/mmol dissolved in toluene. Intralipid is from Kabi-Fresenius). Apo CII was obtained from PMSF-treated plasma from overnight fasted rats. All other reagents are of commercial grade and obtained from various commercial sources.
Methods. The preparation of the substrate is as follows:
25 μl of ^3H-Triolein evaporated under a gentle stream of N2 in a 27° C. room in 4 ml chromacol glass followed by the addition of 1 ml 10% intralipid. This is mixed and sonicated on ice for 5 minutes (50% pulse mode). This can be kept for 1 week at 4° C.
100 μl assay medium (0.3M Tris-Cl, 0.2M NaCl, 0.2 mg heparin/ml and 120 mg BSA/ml (fraction V, Sigma no. 3401, pH 8.5))
All mixed in a 13×100 mm glass tube and incubated for at least 5 minutes.
2. Add 5 μl LPL (of a solution containing 500 mU/mg)
Mix and incubate for 30 minutes at 25° C.
3. The reaction is stopped with 3.25 ml of a solution containing Methanol:chloroform:heptan 10:9:7. Add 1.05 ml buffer (100 mM Boric acid, 100 mM potassium carbonate pH 10.5) and mix 10 seconds per vial.
5. Take 1 ml of the upper phase+10 ml scintillation fluid and mix
6. Scintillation count for 5 minutes per vial.

[2] = read-out: HSL inhibition (IC50)

| Structure (SMILES) | IC50 [1, 2] [nM] | inhibition at 50 µM (Lipoprotein lipase (LPL)) [%] | IC50 [1] [nM] |
| --- | --- | --- | --- |
| COc1cc2c(cc1OC)CN(NC(=O)Oc1ccc(Cl)cc1)CC2 [Example 16, (6,7-Dimethoxy-3.4-dihydro-1H-isoquinolin-2-yl)-carbamic Acid 4-chloro-phenyl Ester] | 1400 | 0 |  |
| O=C(NN1CCc2ccccc2C1)Oc1ccc(-c2ccccc2)cc1 [Example 36] | > 10000 |  |  |
| CN(C(=O)Oc1ccc(Cl)cc1)N1CCc2ccccc2C1 [Example 21, (3,4-Dihydro-1H-isoquinolin-2-yl)-methyl-carbamic Acid 4-chloro-phenyl Ester] | > 10000 | 5 |  |
| CCc1ccc(OC(=O)NN2CCc3ccccc3C2)cc1 [Example 28] | 70 | 3 |  |
| O=C(NN1CCc2ccccc2C1)Oc1ccc(Br)cc1 [Example 5, (3,4-Dihydro-1H-isoquinolin-2-yl)-carbamic acid 4-bromo-phenyl Ester] | 39 | 7 |  |
| O=C(NN1CCc2ccccc2C1)Oc1ccc(Cl)c(C(F)(F)F)c1 [Example 47] | > 10000 |  |  |
| O=C(NN1CCc2ccccc2C1)Oc1ccc(F)cc1 [Example 7] | 460 | 0 |  |
| CCOC(=O)c1ccc(OC(=O)NN2CCc3ccccc3C2)cc1 [Example 35] | > 10000 | 0 |  |
| CC(=O)c1ccc(OC(=O)NN2CCc3ccccc3C2)cc1 [Example 45] | > 10000 |  |  |
| O=C(NN1CCc2ccccc2C1)Oc1ccc(C(=O)c2ccccc2)cc1 [Example 41] | > 10000 |  |  |
| CC(=O)Nc1ccc(OC(=O)NN2CCc3ccccc3C2)cc1 [Example 25] | > 10000 |  |  |
| O=C(NN1CCc2ccccc2C1)Oc1ccc(OC(F)(F)F)cc1 [Example 40] | 3400 | 1 |  |
| Nc1ccc(OC(=O)NN2CCc3ccccc3C2)cc1 [Example 18, (3,4-Dihydro-1H-isoquinolin-2-yl)-carbamic Acid 4-amino-phenyl Ester Hydrochloride] | 7700 | 0 |  |
| O=C(NN1CCc2ccccc2C1)Oc1ccc(Oc2ccccc2)cc1 [Example 38] | 330 | 0 |  |
| O=C(NN1CCc2ccccc2C1)Oc1ccc(C2CCCCC2)cc1 [Example 43] | > 10000 | 6 |  |
| Cc1cccc(OC(=O)NN2CCc3ccccc3C2)c1 [Example 10, (3,4-Dihydro-1H-isoquinolin-2-yl)-carbamic Acid m-tolyl Ester] | 670 | 5 |  |
| O=C(NN1CCc2ccccc2C1)Oc1ccc(OCc2ccccc2)cc1 [Example 29] | 2600 | 0 |  |
| CCCOc1ccc(OC(=O)NN2CCc3ccccc3C2)cc1 [Example 39] | 2500 | 2 |  |
| O=C(NN1CCc2ccccc2C1)Oc1ccccc1F [Example 15, (3,4-Dihydro-1H-isoquinolin-2-yl)-carbamic Acid 2-fluoro-phenyl Ester] | 1500 | 0 |  |
| O=C(NN1CCc2ccccc2C1)Oc1ccc(C(F)(F)F)cc1 [Example 13, (3,4-Dihydro-1H-isoquinolin-2-yl)-carbamic Acid 4-trifluoromethyl-phenyl Ester] | 45 | 3 |  |
| O=C(NN1CCc2ccccc2C1)Oc1ccc(Cc2ccccc2)cc1 [Example 27] |  | 5 | 90 |
| CCC(C)c1ccc(OC(=O)NN2CCc3ccccc3C2)cc1 (stereo not shown) [Example 33] | 170 | 2 |  |
| S=C(NN1CCc2ccccc2C1)Sc1ccccc1 [Example 50, (3,4-Dihydro-1H-isoquinolin-2-yl)-dithiocarbamic Acid Phenyl Ester] | > 10000 |  |  |
| O=C(NN1CCOCC1)Oc1ccc(Cl)cc1 [Example 49, Morpholin-4-yl-carbamic Acid 4-chloro-phenyl Ester] |  |  | 100 |
| CCC(=O)c1ccc(OC(=O)NN2CCc3ccccc3C2)cc1 [Example 24] | > 10000 |  |  |
| Cc1ccc(C(=O)c2ccc(OC(=O)NN3CCc4ccccc4C3)cc2)cc1 [Example 26] | > 10000 |  |  |
| CN(C)CCc1ccc(OC(=O)NN2CCc3ccccc3C2)cc1 [Example 34] | > 10000 |  |  |
| O=C(NN1CCCCC1)Oc1ccc(Cl)cc1 [Example 48, Piperidin-1-yl-carbamic Acid 4-chloro-phenyl Ester] |  |  | 50 |
| O=C(NN1CCc2ccccc2C1)Oc1ccc(C(=O)CCCCl)cc1 [Example 44] | > 10000 |  |  |
